In ChEMBL document CHEMBL1909046, “DrugMatrix in vitro pharmacology data” one finds IC50 and Ki data, which are given here for seven compounds.

Tested on in the first test: not listed separately
The test can be described thus: DRUGMATRIX: Atrial Natriuretic Factor (ANF) radioligand binding (ligand: [125I] ANF (rat)). The format is cell membranes, Cavia porcellus, Dunkin-Hartley, Adrenal gland, Membrane. The settings on record: Not Active = under 50% inhibition at 10 µM.
For the compound `Cc1cccc(Nc2ccccc2C(=O)O)c1C` [MEFENAMIC ACID], the IC50 result was “Not Active” and the Ki entry was “Not Active”.
In the case of `CC(=O)O[C@]1(C(C)=O)CC[C@H]2[C@@H]3C=C(C)C4=CC(=O)CC[C@]4(C)[C@H]3CC[C@@]21C` [MEGESTROL ACETATE], the IC50 entry is “Not Active” and the Ki entry is listed as “Not Active”.
As to `COc1ccccc1OCC(O)COC(N)=O` (stereo not given) [METHOCARBAMOL], the IC50 result was “Not Active” and the Ki entry was “Not Active”.
As to `CN(Cc1cnc2nc(N)nc(N)c2n1)c1ccc(C(=O)N[C@@H](CCC(=O)O)C(=O)O)cc1` [METHOTREXATE], the IC50 entry is “Not Active” and the Ki result is recorded as “Not Active”.
For the compound `COC(=O)c1ccccc1O` [METHYL SALICYLATE], the IC50 entry is reported as “Not Active” and the Ki result is “Not Active”.
`COc1ccc2cc(CCC(C)=O)ccc2c1` [NABUMETONE]: the IC50 entry is “Not Active” and the Ki entry is on record as “Not Active”.
Regarding `O=C(O)c1cccnc1` [NIACIN], the IC50 entry was “Not Active” and the Ki result is on record as “Not Active”.

In a further test the target is T1, Alpha-1A adrenergic receptor (Rattus norvegicus, UniProt P43140).
T1 sequence (P43140 whole entry): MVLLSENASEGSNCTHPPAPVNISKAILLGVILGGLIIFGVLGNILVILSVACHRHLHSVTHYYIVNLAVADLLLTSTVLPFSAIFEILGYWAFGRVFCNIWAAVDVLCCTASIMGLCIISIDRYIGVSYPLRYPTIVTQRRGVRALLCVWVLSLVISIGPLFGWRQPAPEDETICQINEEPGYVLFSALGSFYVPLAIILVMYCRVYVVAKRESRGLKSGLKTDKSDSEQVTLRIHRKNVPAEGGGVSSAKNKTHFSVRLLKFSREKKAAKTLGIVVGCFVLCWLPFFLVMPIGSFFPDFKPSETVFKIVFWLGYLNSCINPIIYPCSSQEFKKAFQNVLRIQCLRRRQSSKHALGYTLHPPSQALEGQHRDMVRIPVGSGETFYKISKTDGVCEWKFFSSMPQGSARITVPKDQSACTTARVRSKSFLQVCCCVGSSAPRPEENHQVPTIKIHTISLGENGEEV
Briefly: DRUGMATRIX: Alpha-1A adrenergic receptor radioligand binding (ligand: prazosin). It counts as cell membranes, Wistar, Submaxillary gland, Membrane. The conditions noted are these: Not Active = under 50% inhibition at 10 µM.
Take `Cc1cccc(Nc2ccccc2C(=O)O)c1C` [MEFENAMIC ACID]: the IC50 result is on record as “Not Active”.
Still for that read-out and setting: then `CC(=O)O[C@]1(C(C)=O)CC[C@H]2[C@@H]3C=C(C)C4=CC(=O)CC[C@]4(C)[C@H]3CC[C@@]21C` [MEGESTROL ACETATE], with “Not Active”.
For `COc1ccccc1OCC(O)COC(N)=O` (stereo not given) [METHOCARBAMOL], the IC50 result is on record as “Not Active”.
For the compound `CN(Cc1cnc2nc(N)nc(N)c2n1)c1ccc(C(=O)N[C@@H](CCC(=O)O)C(=O)O)cc1` [METHOTREXATE], the IC50 result was “Not Active”.
Same read-out and setting: under `COC(=O)c1ccccc1O` [METHYL SALICYLATE] stands “Not Active”; under `COc1ccc2cc(CCC(C)=O)ccc2c1` [NABUMETONE], “Not Active”.
Same read-out and setting: under `O=C(O)c1cccnc1` [NIACIN] stands “Not Active”.

For another test, the target named is Adenosine receptor A2a (Homo sapiens, UniProt P29274). Briefly: DRUGMATRIX: Adenosine A2A radioligand binding (ligand: […]). It counts as cell membranes, HEK293, Membrane. The conditions noted are these: hek293; Not Active = under 50% inhibition at 10 µM.
Adenosine receptor A2a, sequence (P29274 whole entry): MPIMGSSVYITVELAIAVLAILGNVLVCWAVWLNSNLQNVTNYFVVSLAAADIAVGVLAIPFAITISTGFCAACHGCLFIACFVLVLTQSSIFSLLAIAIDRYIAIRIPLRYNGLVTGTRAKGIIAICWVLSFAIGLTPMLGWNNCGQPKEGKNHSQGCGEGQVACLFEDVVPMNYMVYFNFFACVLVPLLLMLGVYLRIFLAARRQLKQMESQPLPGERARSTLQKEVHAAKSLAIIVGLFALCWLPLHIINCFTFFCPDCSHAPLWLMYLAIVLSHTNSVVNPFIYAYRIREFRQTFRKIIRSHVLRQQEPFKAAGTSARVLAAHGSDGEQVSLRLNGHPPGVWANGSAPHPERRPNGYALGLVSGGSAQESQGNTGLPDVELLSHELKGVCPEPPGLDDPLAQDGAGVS
Regarding `Cc1cccc(Nc2ccccc2C(=O)O)c1C` [MEFENAMIC ACID], the IC50 entry is on record as “Not Active”.
With `CC(=O)O[C@]1(C(C)=O)CC[C@H]2[C@@H]3C=C(C)C4=CC(=O)CC[C@]4(C)[C@H]3CC[C@@]21C` [MEGESTROL ACETATE], the IC50 entry is “Not Active”.
Turning to `COc1ccccc1OCC(O)COC(N)=O` (stereo not given) [METHOCARBAMOL], the IC50 entry is reported as “Not Active”.
Consider `CN(Cc1cnc2nc(N)nc(N)c2n1)c1ccc(C(=O)N[C@@H](CCC(=O)O)C(=O)O)cc1` [METHOTREXATE], for which the IC50 entry is listed as “Not Active”.
With `COC(=O)c1ccccc1O` [METHYL SALICYLATE], the IC50 entry is “Not Active”.
As to `COc1ccc2cc(CCC(C)=O)ccc2c1` [NABUMETONE], the IC50 entry is “Not Active”.
Still for that read-out and setting: then `O=C(O)c1cccnc1` [NIACIN], with “Not Active”.

A further test deals with T2, 3-hydroxy-3-methylglutaryl-coenzyme A reductase (Homo sapiens, UniProt P04035).
T2 sequence (P04035 whole entry): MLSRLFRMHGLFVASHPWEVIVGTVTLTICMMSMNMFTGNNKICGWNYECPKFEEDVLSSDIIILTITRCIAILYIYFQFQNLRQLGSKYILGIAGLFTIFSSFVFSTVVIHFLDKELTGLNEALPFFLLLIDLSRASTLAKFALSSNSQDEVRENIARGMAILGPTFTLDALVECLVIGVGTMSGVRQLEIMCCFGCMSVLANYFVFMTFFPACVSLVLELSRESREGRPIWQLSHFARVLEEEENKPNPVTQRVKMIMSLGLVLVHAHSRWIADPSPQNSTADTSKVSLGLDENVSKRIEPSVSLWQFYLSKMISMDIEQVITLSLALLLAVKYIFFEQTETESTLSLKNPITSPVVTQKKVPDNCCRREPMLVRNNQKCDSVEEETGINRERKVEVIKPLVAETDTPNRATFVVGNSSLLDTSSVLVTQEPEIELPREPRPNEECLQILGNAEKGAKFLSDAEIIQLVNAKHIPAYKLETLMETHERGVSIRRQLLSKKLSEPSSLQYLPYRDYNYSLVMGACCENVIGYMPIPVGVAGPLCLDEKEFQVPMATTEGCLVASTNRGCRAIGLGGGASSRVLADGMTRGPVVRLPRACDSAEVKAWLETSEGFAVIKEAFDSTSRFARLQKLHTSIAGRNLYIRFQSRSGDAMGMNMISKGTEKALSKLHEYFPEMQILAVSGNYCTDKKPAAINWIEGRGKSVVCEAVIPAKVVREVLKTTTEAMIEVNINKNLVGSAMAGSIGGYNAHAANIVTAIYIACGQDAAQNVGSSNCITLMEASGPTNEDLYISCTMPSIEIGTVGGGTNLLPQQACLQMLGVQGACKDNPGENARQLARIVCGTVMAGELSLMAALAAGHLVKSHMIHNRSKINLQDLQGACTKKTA
More on the design: species or system Escherichia coli.
Conditions: not given
`Cc1cccc(Nc2ccccc2C(=O)O)c1C` [MEFENAMIC ACID]: the IC50 entry was “Not Active”.
Same read-out and setting: under `CC(=O)O[C@]1(C(C)=O)CC[C@H]2[C@@H]3C=C(C)C4=CC(=O)CC[C@]4(C)[C@H]3CC[C@@]21C` [MEGESTROL ACETATE] stands “Not Active”; under `COc1ccccc1OCC(O)COC(N)=O` (stereo not given) [METHOCARBAMOL], “Not Active”; under `CN(Cc1cnc2nc(N)nc(N)c2n1)c1ccc(C(=O)N[C@@H](CCC(=O)O)C(=O)O)cc1` [METHOTREXATE], “Not Active”.
On the same count and under the same terms, under `COC(=O)c1ccccc1O` [METHYL SALICYLATE] stands “Not Active”; under `COc1ccc2cc(CCC(C)=O)ccc2c1` [NABUMETONE], “Not Active”; under `O=C(O)c1cccnc1` [NIACIN], “Not Active”.

Tested on in the next test: not listed separately
The test can be described thus: DRUGMATRIX: Interleukin IL-1 radioligand binding (ligand: [125I] interleukin 1beta). The format is cell membranes, Membrane. The conditions noted are these: nih3t3; Not Active = under 50% inhibition at 10 µM.
As to `Cc1cccc(Nc2ccccc2C(=O)O)c1C` [MEFENAMIC ACID], the IC50 entry is given as “Not Active” and the Ki entry was “Not Active”.
Turning to `CC(=O)O[C@]1(C(C)=O)CC[C@H]2[C@@H]3C=C(C)C4=CC(=O)CC[C@]4(C)[C@H]3CC[C@@]21C` [MEGESTROL ACETATE], the IC50 entry is “Not Active” and the Ki result is recorded as “Not Active”.
On to `COc1ccccc1OCC(O)COC(N)=O` (stereo not given) [METHOCARBAMOL], for which the IC50 entry is reported as “Not Active” and the Ki entry is “Not Active”.
Regarding `CN(Cc1cnc2nc(N)nc(N)c2n1)c1ccc(C(=O)N[C@@H](CCC(=O)O)C(=O)O)cc1` [METHOTREXATE], the IC50 result is recorded as “Not Active” and the Ki result was “Not Active”.
On to `COC(=O)c1ccccc1O` [METHYL SALICYLATE], for which the IC50 result is given as “Not Active” and the Ki result was “Not Active”.
Turning to `COc1ccc2cc(CCC(C)=O)ccc2c1` [NABUMETONE], the IC50 entry was “Not Active” and the Ki result is given as “Not Active”.
Consider `O=C(O)c1cccnc1` [NIACIN], for which the IC50 entry was “Not Active” and the Ki entry was “Not Active”.

Tested on in another test: not listed separately
The test can be described thus: DRUGMATRIX: Calcium Channel Type L, Benzothiazepine radioligand binding (ligand: [3H] Diltiazem). It counts as cell membranes, Rattus norvegicus, Wistar, Brain, Membrane. The settings on record: Not Active = under 50% inhibition at 10 µM.
`Cc1cccc(Nc2ccccc2C(=O)O)c1C` [MEFENAMIC ACID]: the IC50 entry is recorded as “Not Active” and the Ki result is “Not Active”.
For `CC(=O)O[C@]1(C(C)=O)CC[C@H]2[C@@H]3C=C(C)C4=CC(=O)CC[C@]4(C)[C@H]3CC[C@@]21C` [MEGESTROL ACETATE], the IC50 result is “Not Active” and the Ki result is recorded as “Not Active”.
Take `COc1ccccc1OCC(O)COC(N)=O` (stereo not given) [METHOCARBAMOL]: the IC50 entry was “Not Active” and the Ki result is reported as “Not Active”.
For the compound `CN(Cc1cnc2nc(N)nc(N)c2n1)c1ccc(C(=O)N[C@@H](CCC(=O)O)C(=O)O)cc1` [METHOTREXATE], the IC50 result was “Not Active” and the Ki entry is on record as “Not Active”.
Consider `COC(=O)c1ccccc1O` [METHYL SALICYLATE], for which the IC50 result is listed as “Not Active” and the Ki entry was “Not Active”.
For `COc1ccc2cc(CCC(C)=O)ccc2c1` [NABUMETONE], the IC50 entry is reported as “Not Active” and the Ki result was “Not Active”.
As to `O=C(O)c1cccnc1` [NIACIN], the IC50 result is recorded as “Not Active” and the Ki result is “Not Active”.

The target of the next test is T3, Interstitial collagenase (Homo sapiens, UniProt P03956).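 Note: MMP-1 enzyme inhibition assay using a peptide substrate; in other assays of this panel Not Active means under 50% inhibition at 10 µM.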
T3 sequence (P03956 whole entry): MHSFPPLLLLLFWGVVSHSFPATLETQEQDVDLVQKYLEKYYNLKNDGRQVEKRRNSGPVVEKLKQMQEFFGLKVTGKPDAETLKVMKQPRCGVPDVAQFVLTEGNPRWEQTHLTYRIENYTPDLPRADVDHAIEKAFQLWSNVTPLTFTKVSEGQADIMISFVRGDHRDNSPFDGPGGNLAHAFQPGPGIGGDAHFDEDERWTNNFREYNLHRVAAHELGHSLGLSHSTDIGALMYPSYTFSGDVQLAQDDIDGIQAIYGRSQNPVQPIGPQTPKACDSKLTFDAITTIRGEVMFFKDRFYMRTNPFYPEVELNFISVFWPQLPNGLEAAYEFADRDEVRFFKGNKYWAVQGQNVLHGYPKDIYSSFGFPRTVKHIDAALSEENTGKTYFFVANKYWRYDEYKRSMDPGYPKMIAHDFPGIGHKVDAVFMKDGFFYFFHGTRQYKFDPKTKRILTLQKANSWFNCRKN
It counts as tissue-based, Rheumatoid synovial fibroblasts.
Conditions: not given
For `Cc1cccc(Nc2ccccc2C(=O)O)c1C` [MEFENAMIC ACID], the IC50 entry is reported as “Not Active”.
On the same count and under the same terms, under `CC(=O)O[C@]1(C(C)=O)CC[C@H]2[C@@H]3C=C(C)C4=CC(=O)CC[C@]4(C)[C@H]3CC[C@@]21C` [MEGESTROL ACETATE] stands “Not Active”.
Same read-out and setting: under `COc1ccccc1OCC(O)COC(N)=O` (stereo not given) [METHOCARBAMOL] stands “Not Active”.
Same read-out and setting: under `CN(Cc1cnc2nc(N)nc(N)c2n1)c1ccc(C(=O)N[C@@H](CCC(=O)O)C(=O)O)cc1` [METHOTREXATE] stands “Not Active”; under `COC(=O)c1ccccc1O` [METHYL SALICYLATE], “Not Active”; under `COc1ccc2cc(CCC(C)=O)ccc2c1` [NABUMETONE], “Not Active”.
`O=C(O)c1cccnc1` [NIACIN]: the IC50 result is on record as “Not Active”.
